This is an account of results in patent US20140249139A1, “Quinazoline Derivatives” (NOVARTIS AG, priority 2011, published 2014).

In one assay the target is T1, PI3K alpha (Homo sapiens, UniProt P42336).
T1 construct: for the p110-a subunit (with a deletion of the first 20 amino acids) are generated; His tag (C); made in house; host or cells: baculovirus BV1075; Tn5 (Trichoplusia ni) or TiniPro insect cells
Kind of assay: Enzymatic PI3K alpha isoform inhibition (lipid kinase activity, Kinase-Glo). It is filed as biochemical. Particulars: enzymatic assay. Here is the method: (§1) The components of the assay are added per well as follows:
(§2) IC50 is determined by a four parameter curve fitting routine that comes along with “excel fit”.
(§3) Yet alternatively, for an ATP depletion assay, compounds of the formula I to be tested are dissolved in DMSO and directly distributed into a white 384-well plate at 0.5 μl per well. To start the reaction, 10 μl of 10 nM PI3 kinase and 5 μg/ml 1-alpha-phosphatidylinositol (PI) are added into each well followed by 10 μl of 2 μM ATP. The reaction is performed until approx 50% of the ATP is depleted, and then stopped by the addition of 20 μl of Kinase-Glo solution (Promega Corp., Madison, Wis., USA). The stopped reaction is incubated for 5 minutes and the remaining ATP is then detected via luminescence. IC50 values are then determined.
In general terms: Kinase-Glo reads ATP consumption through a luciferase reaction.

Another assay deals with T2, PI3K delta (Homo sapiens, UniProt O00329).
T2 construct: for the full-length p110-d subunit are generated and fused by overlapping PCR; His tag (C); made in house; host or cells: baculovirus BV1060; Tn5 (Trichoplusia ni) or TiniPro insect cells
T2 sequence (O00329 with tags, fused parts or gaps limits assumed, species assumed): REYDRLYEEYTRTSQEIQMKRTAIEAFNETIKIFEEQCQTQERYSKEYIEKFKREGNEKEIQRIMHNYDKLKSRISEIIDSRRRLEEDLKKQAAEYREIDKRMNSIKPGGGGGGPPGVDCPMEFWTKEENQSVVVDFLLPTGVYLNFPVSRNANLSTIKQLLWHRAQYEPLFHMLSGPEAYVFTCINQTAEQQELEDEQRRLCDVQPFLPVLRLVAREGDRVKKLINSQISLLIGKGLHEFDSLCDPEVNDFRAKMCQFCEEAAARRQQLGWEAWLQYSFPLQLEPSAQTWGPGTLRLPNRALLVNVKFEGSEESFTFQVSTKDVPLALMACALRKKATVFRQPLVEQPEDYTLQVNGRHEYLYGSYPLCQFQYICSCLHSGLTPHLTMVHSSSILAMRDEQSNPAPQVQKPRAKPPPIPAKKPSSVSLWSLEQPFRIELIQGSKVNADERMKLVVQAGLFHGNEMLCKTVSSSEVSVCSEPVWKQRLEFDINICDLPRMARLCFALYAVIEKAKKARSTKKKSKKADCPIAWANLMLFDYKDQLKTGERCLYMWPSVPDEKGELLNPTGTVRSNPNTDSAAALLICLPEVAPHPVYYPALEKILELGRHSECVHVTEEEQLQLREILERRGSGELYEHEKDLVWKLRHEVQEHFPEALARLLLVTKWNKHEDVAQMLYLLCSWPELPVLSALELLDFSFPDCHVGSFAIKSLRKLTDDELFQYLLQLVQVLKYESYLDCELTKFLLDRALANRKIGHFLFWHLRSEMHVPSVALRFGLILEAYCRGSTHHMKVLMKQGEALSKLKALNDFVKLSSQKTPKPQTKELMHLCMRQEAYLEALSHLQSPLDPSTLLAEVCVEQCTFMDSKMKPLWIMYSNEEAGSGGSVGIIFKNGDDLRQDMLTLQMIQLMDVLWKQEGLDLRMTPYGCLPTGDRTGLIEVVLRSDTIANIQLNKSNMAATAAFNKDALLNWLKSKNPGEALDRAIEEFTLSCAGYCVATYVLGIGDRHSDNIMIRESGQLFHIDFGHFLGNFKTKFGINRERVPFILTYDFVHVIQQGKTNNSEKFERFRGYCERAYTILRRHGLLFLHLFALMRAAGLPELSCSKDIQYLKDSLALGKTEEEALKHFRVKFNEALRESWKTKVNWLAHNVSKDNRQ
The experiment in a line: Enzymatic PI3K delta isoform inhibition (lipid kinase activity, Kinase-Glo). It is filed as biochemical. Particulars: enzymatic assay. As to the method:
as §1, §2, §3

T1 sequence (P42336 with tags, fused parts or gaps limits assumed, species assumed): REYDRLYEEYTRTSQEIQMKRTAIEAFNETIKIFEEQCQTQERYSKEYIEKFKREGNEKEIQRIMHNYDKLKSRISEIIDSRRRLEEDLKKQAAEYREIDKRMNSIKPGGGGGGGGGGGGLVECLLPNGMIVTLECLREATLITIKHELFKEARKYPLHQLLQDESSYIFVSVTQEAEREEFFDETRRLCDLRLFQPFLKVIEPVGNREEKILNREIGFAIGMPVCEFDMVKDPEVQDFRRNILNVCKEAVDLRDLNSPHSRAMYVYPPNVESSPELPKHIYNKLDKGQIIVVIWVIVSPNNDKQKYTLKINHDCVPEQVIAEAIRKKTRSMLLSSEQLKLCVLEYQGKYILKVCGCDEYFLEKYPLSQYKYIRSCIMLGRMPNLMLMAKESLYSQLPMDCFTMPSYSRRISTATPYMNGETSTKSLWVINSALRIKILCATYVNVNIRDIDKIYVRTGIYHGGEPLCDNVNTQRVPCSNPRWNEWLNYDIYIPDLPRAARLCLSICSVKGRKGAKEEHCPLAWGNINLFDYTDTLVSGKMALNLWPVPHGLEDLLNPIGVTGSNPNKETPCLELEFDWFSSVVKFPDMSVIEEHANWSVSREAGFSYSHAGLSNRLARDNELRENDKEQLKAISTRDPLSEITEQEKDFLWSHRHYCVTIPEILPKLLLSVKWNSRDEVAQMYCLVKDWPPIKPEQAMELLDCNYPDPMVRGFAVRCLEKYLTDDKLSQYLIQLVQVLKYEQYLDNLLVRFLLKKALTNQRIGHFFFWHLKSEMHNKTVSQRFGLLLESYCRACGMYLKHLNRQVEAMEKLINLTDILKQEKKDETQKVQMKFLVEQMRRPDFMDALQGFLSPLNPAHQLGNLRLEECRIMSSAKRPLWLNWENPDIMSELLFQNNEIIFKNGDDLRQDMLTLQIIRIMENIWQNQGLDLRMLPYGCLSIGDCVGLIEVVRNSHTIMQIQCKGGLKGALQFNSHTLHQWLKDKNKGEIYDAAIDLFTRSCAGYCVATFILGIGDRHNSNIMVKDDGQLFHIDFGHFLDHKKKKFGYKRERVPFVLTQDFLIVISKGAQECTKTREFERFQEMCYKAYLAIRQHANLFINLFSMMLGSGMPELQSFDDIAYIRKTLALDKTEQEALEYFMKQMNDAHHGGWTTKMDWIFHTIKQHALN

What is called IC50 is the concentration at which inhibition is half-maximal. A low value points to greater potency in that assay. For the compound `COc1ccc(-c2ccc3ncnc(-c4cncc(C(=O)N5CCOC(C)(C)C5)c4)c3c2)cn1` [Example 67], the IC50 against PI3K alpha worked out at 0.306 µM; at PI3K delta, 0.007 µM.
In the case of `COc1ncc(-c2ccc3ncnc(-c4cccc(C(=O)N5CCOC(C)(C)C5)c4)c3c2)cn1` [Example 33], the IC50 on PI3K alpha amounted to 0.639 µM; against PI3K delta, 0.012 µM.
For `COc1ccc(-c2ccc3ncnc(-c4cncc(C(=O)N5CCCN(C)CC5)c4)c3c2)cn1` [Example 76, {5-[6-(6-Methoxy-pyridin-3-yl)-quinazolin-4-yl]-pyridine-3-yl}-(4-methyl-[1,4]-diazepan-1-yl)-methanone] the same measures were 0.578 µM and 0.0235 µM.
As for `CCC(=O)N1CCN(C(=O)c2cccc(-c3ncnc4ccc(-c5cnc(OC)c(C#N)c5)cc34)c2)CC1` [Example 96, 2-Methoxy-5-{4-[3-(4-propionyl-piperazine-1-carbonyl)-phenyl]-quinazolin-6-yl}-nicotinonitrile], the IC50 on PI3K alpha is 0.316 µM; against PI3K delta, 0.006 µM.
Regarding `COc1ccc(-c2ccc3ncnc(-c4cccc(C(=O)N5CC6CC5CN6)c4)c3c2)cn1` (centres unmarked) [Example 38, (2,5-Diaza-bicyclo[2.2.1]hept-2-yl)-{3-[6-(6-methoxy-pyridin-3-yl)-quinazolin-4-yl]-phenyl}-methanone], the IC50 came to 0.372 µM against PI3K alpha and 0.007 µM on PI3K delta.
Turning to `CC(=O)N1CCN(C(=O)c2cccc(-c3ncnc4ccc(-c5cnc(N)nc5)cc34)c2)CC1` [Example 8], the figures for the IC50 at PI3K alpha and on PI3K delta were 0.268 µM and 0.0095 µM, respectively.
On to `COc1ccc(-c2ccc3ncnc(-c4ccc(C)c(C(=O)N5CCN(C(C)C)CC5)c4)c3c2)cn1` [Example 116, (4-Isopropyl-piperazin-1-yl)-{5-[6-(6-methoxy-pyridin-3-yl)-quinazolin-4-yl]-2-methyl-phenyl}-methanone], for which the figures for the IC50 at PI3K alpha and at PI3K delta were 0.306 µM and 0.014 µM, respectively.
Turning to `COc1ncc(-c2ccc3ncnc(-c4ccc(C)c(C(=O)N5CCN(C(C)=O)CC5)c4)c3c2)cn1` [Example 102, 1-(4-{5-[6-(2-Methoxy-pyrimidin-5-yl)-quinazolin-4-yl]-2-methyl-benzoyl}-piperazin-1-yl)-ethanone], the IC50 at PI3K alpha was found to be 0.77 µM; against PI3K delta it was 0.011 µM.
For the compound `COc1ccc(-c2ccc3ncnc(-c4cccc(C(=O)N5CCNC[C@@H]5C)c4)c3c2)cn1` [Example 98, {3-[6-(6-Methoxy-pyridin-3-yl)-quinazolin-4-yl]-phenyl}-((S)-2-methyl-piperazin-1-yl)-methanone], the IC50 against PI3K alpha is 0.102 µM; on PI3K delta, 0.0035 µM.
With `COc1ccc(-c2ccc3ncnc(-c4cccc(C(=O)N5CC(C)NC(C)C5)c4)c3c2)cn1` (centres unmarked) [Example 90, (3,5-Dimethyl-piperazin-1-yl)-{3-[6-(6-methoxy-pyridin-3-yl)-quinazolin-4-yl]-phenyl}-methanone], the IC50 against PI3K alpha was 0.181 µM; against PI3K delta, 0.00575 µM.
For `CCOc1ncc(-c2ccc3ncnc(-c4cccc(C(=O)N5CCN(C(C)=O)CC5)c4)c3c2)cn1` [Example 5], the values for the IC50 at PI3K alpha and on PI3K delta were 1.32 µM and 0.0085 µM, respectively.
As for `COc1ncc(-c2ccc3ncnc(-c4cncc(C(=O)N5CCS(=O)(=O)CC5)c4)c3c2)cc1C#N` [Example 71], the values for the IC50 on PI3K alpha and on PI3K delta were 0.55 µM and 0.008 µM, respectively.
For `COc1ccc(-c2ccc3ncnc(-c4cncc(C(=O)N5C[C@@H]6C[C@H]5CN6C)c4)c3c2)cn1` [Example 77, {5-[6-(6-Methoxy-pyridin-3-yl)-quinazolin-4-yl]-pyridin-3-yl}-((1S,4S)-5-methyl-2,5-diaza-bicyclo[2.2.1]hept-2-yl)-methanone], the half-inhibitory concentration (IC50) on PI3K alpha amounted to 0.573 µM; against PI3K delta it was 0.014 µM.
For the compound `COc1ncc(-c2ccc3ncnc(-c4cccc(C(=O)N5CCOC(C)(C)C5)c4)c3c2)cc1C#N` [Example 31], the IC50 on PI3K alpha was determined as 0.631 µM; on PI3K delta it was 0.006 µM.
For `COc1ccc(-c2ccc3ncnc(-c4cncc(C(=O)N5CC(C)NC(C)C5)c4)c3c2)cc1C(F)(F)F` (centres unmarked) [Example 80, (3,5-Dimethyl-piperazin-1-yl)-{5-[6-(4-methoxy-3-trifluoromethyl-phenyl)-quinazolin-4-yl]-pyridin-3-yl}-methanone] the same measures were 0.717 µM and 0.0105 µM.
For `COc1ncc(-c2ccc3ncnc(-c4cncc(C(=O)N5CCN(C(C)=O)CC5)c4)c3c2)cc1C#N` [Example 53] the same measures were 0.472 µM and 0.007 µM.
In the case of `COc1ccc(-c2ccc3ncnc(-c4cccc(C(=O)N5CCN(C)CC5)c4)c3c2)cc1S(=O)(=O)N1CCOCC1` [Example 21], the values for the IC50 against PI3K alpha and on PI3K delta were 2.27 µM and 0.0145 µM, respectively.
Turning to `COc1ncc(-c2ccc3ncnc(-c4cccc(C(=O)N5CCS(=O)(=O)CC5)c4)c3c2)cc1C#N` [Example 28], the results for the IC50 at PI3K alpha and on PI3K delta were 0.418 µM and 0.009 µM, respectively.
Consider `COc1ncc(-c2ccc3ncnc(-c4cc(F)cc(C(=O)N5CCN(C(C)=O)CC5)c4)c3c2)cn1` [Example 111, 1-(4-{3-Fluoro-5-[6-(2-methoxy-pyrimidin-5-yl)-quinazolin-4-yl]-benzoyl}-piperazin-1-yl)-ethanone], for which the values for the IC50 at PI3K alpha and against PI3K delta were 1.36 µM and 0.01 µM, respectively.
In the case of `CCOc1ccc(-c2ccc3ncnc(-c4cccc(C(=O)N5CCN(C)CC5)c4)c3c2)cn1` [Example 16], the half-maximal inhibitory concentration (IC50) on PI3K alpha was determined as 0.695 µM; against PI3K delta, 0.0125 µM.
In the case of `COc1ncc(-c2ccc3ncnc(-c4cncc(C(=O)N5CCN(C(C)=O)CC5)c4)c3c2)cc1F` [Example 51], the IC50 amounted to 0.118 µM at PI3K alpha and 0.0035 µM on PI3K delta.
Regarding `COc1ccc(-c2ccc3ncnc(-c4cc(C(=O)N5CCN(C(C)=O)CC5)cc(C(F)(F)F)c4)c3c2)cn1` [Example 101, 1-(4-{3-[6-(6-Methoxy-pyridin-3-yl)-quinazolin-4-yl]-5-trifluoromethyl-benzoyl}-piperazin-1-yl)-ethanone], the IC50 against PI3K alpha stood at 1.27 µM; against PI3K delta, 0.016 µM.
In the case of `CCN1CCN(C(=O)c2cccc(-c3ncnc4ccc(-c5ccc(OC)nc5)cc34)c2)CC1` [Example 86, (4-Ethyl-piperazin-1-yl)-{3-[6-(6-methoxy-pyridin-3-yl)-quinazolin-4-yl]-phenyl}-methanone], the figures for the IC50 against PI3K alpha and against PI3K delta were 0.381 µM and 0.0155 µM, respectively.
For the compound `COc1ncc(-c2ccc3ncnc(-c4cncc(C(=O)N5CCN(C)C(C)(C)C5)c4)c3c2)cc1F` [Example 73], the IC50 against PI3K alpha was 0.0605 µM; on PI3K delta, < 0.003 µM.
For `COc1ccc(-c2ccc3ncnc(-c4cccc(C(=O)N5CCN(C)C(C)(C)C5)c4)c3c2)cn1` [Example 89, {3-[6-(6-Methoxy-pyridin-3-yl)-quinazolin-4-yl]-phenyl}-(3,3,4-trimethyl-piperazin-1-yl)-methanone], the IC50 against PI3K alpha was found to be 0.099 µM; against PI3K delta it was 0.004 µM.
For `CN1CCN(C(=O)c2cccc(-c3ncnc4ccc(-c5cc(NS(C)(=O)=O)cc(C(F)(F)F)c5)cc34)c2)CC1` [Example 47], the 50% inhibitory concentration (IC50) is > 9.1 µM against PI3K alpha and 0.027 µM on PI3K delta.
`COc1ccc(-c2ccc3ncnc(-c4cccc(C(=O)N5CCN(C)CC5)c4)c3c2)cc1C(F)(F)F` [Example 20]: the IC50 is 2.48 µM against PI3K alpha and 0.024 µM against PI3K delta.
In the case of `COc1cc(C(=O)N2CCN(C(C)=O)CC2)cc(-c2ncnc3ccc(-c4cnc(OC)c(C#N)c4)cc23)c1` [Example 105, 5-{4-[3-(4-Acetyl-piperazine-1-carbonyl)-5-methoxy-phenyl]-quinazolin-6-yl}-2-methoxy-nicotinonitrile], the IC50 against PI3K alpha was determined as 0.72 µM; on PI3K delta, 0.007 µM.
For `COc1ccc(-c2ccc3ncnc(-c4cccc(C(=O)N5CCCN(C)CC5)c4)c3c2)cn1` [Example 92, {3-[6-(6-Methoxy-pyridin-3-yl)-quinazolin-4-yl]-phenyl}-(4-methyl-[1,4]diazepan-1-yl)-methanone] the same measures were 0.196 µM and 0.00375 µM.
Regarding `COc1ccc(-c2ccc3ncnc(-c4cncc(C(=O)N5CCNCC(F)(F)C5)c4)c3c2)cc1C(F)(F)F` [Example 83, (6,6-Difluoro-[1,4]diazepan-1-yl)-{5-[6-(4-methoxy-3-trifluoromethyl-phenyl)-quinazolin-4-yl]-pyridin-3-yl}-methanone], the IC50 on PI3K alpha turned out to be 0.904 µM; at PI3K delta, 0.021 µM.
For `COc1ncc(-c2ccc3ncnc(-c4cncc(C(=O)N5CCN(C)CC5)c4)c3c2)cc1F` [Example 55] the same measures were 0.193 µM and 0.00925 µM.
For `CCOc1ncc(-c2ccc3ncnc(-c4cccc(C(=O)N5CCN(C)CC5)c4)c3c2)cc1C(F)(F)F` [Example 42, {3-[6-(6-Ethoxy-5-trifluoromethyl-pyridin-3-yl)-quinazolin-4-yl]-phenyl}-(4-methyl-piperazin-1-yl)-methanone] the same measures were 0.152 µM and 0.006 µM.
For `COc1ccc(-c2ccc3ncnc(-c4cncc(C(=O)N5CCN(C(C)=O)CC5)c4)c3c2)cn1` [Example 52] the same measures were 0.189 µM and 0.0075 µM.
As for `COc1ccc(-c2ccc3ncnc(-c4cncc(C(=O)N5CCNC(C)(C)C5)c4)c3c2)cn1` [Example 79, (3,3-Dimethyl-piperazin-1-yl)-{5-[6-(6-methoxy-pyridin-3-yl)-quinazolin-4-yl]-pyridin-3-yl}-methanone], the results for the IC50 on PI3K alpha and on PI3K delta were 0.359 µM and 0.01 µM, respectively.
